In patent US11535597B2, “Photoreactive ligands and uses thereof” (The Scripps Research Institute, priority 2017, dated 2022):
pIC50: −log10 of the molar value.

Legend:
PTGR2 = PTGR2 (Homo sapiens, UniProt Q8N8N7); assay: In vitro LCMS-based activity assay for PTGR2 (15-keto-PGE2 reductase activity); type: biochemical
Procedure: Aliquots (1 μL) of test compounds dissolved in DMSO were transferred to 1.5 mL eppendorf tubes followed by addition of recombinant human PTGR2 (44 μL, 200 nM final concentration) in freshly prepared reaction buffer (Tris Buffer, 1 mM EDTA, 50 μM TCEP, 300 μM NADPH). The resulting mixture was vortexed and then incubated at 37° C. for 20 min. Next, a 5 μL solution of 15-keto-PGE2 substrate (20 μM final concentration) in reaction buffer was added and the reaction was allowed to proceed for 30 min at 37° C. Reactions were quenched by the addition of 0.5% AcOH in ethyl acetate (800 μL), water (300 μL) and 100 μL of internal standard PGE2-d4 (30 pmol/sample) dissolved in 1:1 methanol/water. Phases were separated by centrifugation and the organic layer was collected and dried under a stream of N2, then stored at −80° C. until analysis. Directly prior to analysis, samples were reconstituted in 100 μL of MeCN:H2O (1:1, v/v) and analyzed by LC/MS/MS. All conditions were performed in triplicate and repeated at least three independent times.
The following MS parameters were used to measure the indicated metabolites by MRM (precursor ion, product ion, collision energy, polarity): PGE2-d4 (355, 275, 18), 13,14-dihydro-15-keto-PGE2 (351, 333, 18) and 15-keto-PGE2 (349, 161, 20). 15-keto-PGE2 and 13,14-dihydro-15-keto-PGE2 levels were quantified by determining peak areas in relation to internal standard PGE2-d4. Non-deuterated 15-keto-PGE2 and 13,14-dihydro-15-keto-PGE2 standards were used to confirm retention time and fragmentation.
All data fitting and statistical analysis performed using GraphPad Prism version 6.00 for Windows, GraphPad Software, La Jolla Calif. USA, www.graphpad.com. Statistical values including the exact n and statistical significance are also reported. Probe binding blockade and PTGR2 inhibition curves are plotted as mean±SD (n=3 or 4 per group) for a representative biological replicate using a variable slope (four parameter) non-linear fit. Gene expression data are presented as mean±SD (n=3 per group). HSC5 metabolite data are shown as mean±SD (n=3 per group). Statistical significance was defined as P<0.05 and determined by 2-tailed Student t tests, or two-way ANOVA with Bonferroni's post-tests.

cathepsin B (CTSB) = molecular target: T1, cathepsin B (CTSB) (Homo sapiens, UniProt P07858); assay: Mapping and competition of FFF probe-modified peptide on cathepsin B (CTSB); type: binding; conditions: active-site proximal peptide
T1 construct: endogenous in cells; host or cells: HEK293T
Procedure: Preparation and analysis was adapted from methods previously reported. In brief, for global mapping of fragment probe-modified peptides, separate 10 cm dishes of cells were treated with probes (200-250 μM) in 3.0 mL of DMEM (serum-free) and (if applicable) competitor ligands, proteomes harvested and subjected to click chemistry conditions with either light or heavy isotopically labeled biotin-TEV-azide (10 μL of 5 mM stocks in DMSO, final concentration=100 μM), TCEP, ligand and CuSO4 as detailed above. The samples were allowed to react for 1 h at which point the samples were centrifuged (16,000 g, 5 min, 4° C.). The resulting pellets were sonicated in ice-cold methanol (500 μL) and the resuspended light- and heavy-labeled samples were then combined and centrifuged (16,000 g, 5 min, 4° C.). The pellets were then solubilized in PBS containing 1.2% SDS (1 mL) with sonication and heating (5 min, 95° C.). Samples were transferred to falcon tubes containing DPBS (5 mL), to which a 100 μL of streptavidin-agarose beads slurry was added. […]
The resulting probe-modified peptides were collected for MS analysis, which was performed as described above with differences in the salt bumps applied in the chromatographic gradients which in this case were 0%, 30%, 60%, 90% and 100% NH4OAc (500 μM). […] The isoTOP ratios for probe labeled peptides were quantified using the in-house software CIMAGE. […]

PTGR2, sequence (Q8N8N7 whole entry): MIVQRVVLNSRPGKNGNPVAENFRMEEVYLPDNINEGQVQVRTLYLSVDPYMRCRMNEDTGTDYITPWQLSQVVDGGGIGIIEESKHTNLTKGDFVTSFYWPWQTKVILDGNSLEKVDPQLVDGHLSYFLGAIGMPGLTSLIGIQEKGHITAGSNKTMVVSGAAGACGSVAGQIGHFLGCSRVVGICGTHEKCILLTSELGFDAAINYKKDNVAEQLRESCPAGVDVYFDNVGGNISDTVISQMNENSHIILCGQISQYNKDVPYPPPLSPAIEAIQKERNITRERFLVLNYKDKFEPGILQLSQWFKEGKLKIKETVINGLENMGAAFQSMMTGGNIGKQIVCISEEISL

SMILES | effect on 15-keto-PGE2 reductase (catalytic) activity of recombinant PTGR2 (PTGR2) | increased potency relative to 20 (PTGR2; in assays measuring either competition of 8-labeling or 15-keto-PGE2 reductase activity of recombinant PTGR2) | pIC50 (PTGR2; recombinant PTGR2, read-out: IC50 for inhibition of PTGR2-mediated reduction of 15-keto-PGE2 (15-keto-PGE2 reductase activity)) | probe-modified peptide in CTSB (cathepsin B (CTSB))
COc1ccccc1N1CCN(C(=O)Cc2ccccc2)CC1 [Compound 22, 1-(4-(2-Methoxyphenyl)piperazin-1-yl)-2-phenylethan-1-one] | inhibited | > 20 fold | 6.22 | –
C#CCCC1(CCC(=O)Nc2ccc(C3CCNCC3)cc2)N=N1 [probe 9, 3-(3-(But-3-yn-1-yl)-3H-diazirin-3-yl)-N-(4-(piperidin-4-yl)phenyl)propanamide] | – | – | – | aa 315-332
